Measured values: ChEMBL document CHEMBL5120857, “Rational design, synthesis and biological evaluation of dual PARP-1/2 and TNKS1/2 inhibitors for cancer therapy” (Eur J Med Chem, 2022)
Calls of active or inactive are those of the source. No cut-off for these calls is given here.

Key:
[1] = target: T1, Poly [ADP-ribose] polymerase tankyrase-1 (Homo sapiens) (UniProt O95271); settings: dose 10.0 nM, time 1.0 hrs
T1 sequence (whole entry): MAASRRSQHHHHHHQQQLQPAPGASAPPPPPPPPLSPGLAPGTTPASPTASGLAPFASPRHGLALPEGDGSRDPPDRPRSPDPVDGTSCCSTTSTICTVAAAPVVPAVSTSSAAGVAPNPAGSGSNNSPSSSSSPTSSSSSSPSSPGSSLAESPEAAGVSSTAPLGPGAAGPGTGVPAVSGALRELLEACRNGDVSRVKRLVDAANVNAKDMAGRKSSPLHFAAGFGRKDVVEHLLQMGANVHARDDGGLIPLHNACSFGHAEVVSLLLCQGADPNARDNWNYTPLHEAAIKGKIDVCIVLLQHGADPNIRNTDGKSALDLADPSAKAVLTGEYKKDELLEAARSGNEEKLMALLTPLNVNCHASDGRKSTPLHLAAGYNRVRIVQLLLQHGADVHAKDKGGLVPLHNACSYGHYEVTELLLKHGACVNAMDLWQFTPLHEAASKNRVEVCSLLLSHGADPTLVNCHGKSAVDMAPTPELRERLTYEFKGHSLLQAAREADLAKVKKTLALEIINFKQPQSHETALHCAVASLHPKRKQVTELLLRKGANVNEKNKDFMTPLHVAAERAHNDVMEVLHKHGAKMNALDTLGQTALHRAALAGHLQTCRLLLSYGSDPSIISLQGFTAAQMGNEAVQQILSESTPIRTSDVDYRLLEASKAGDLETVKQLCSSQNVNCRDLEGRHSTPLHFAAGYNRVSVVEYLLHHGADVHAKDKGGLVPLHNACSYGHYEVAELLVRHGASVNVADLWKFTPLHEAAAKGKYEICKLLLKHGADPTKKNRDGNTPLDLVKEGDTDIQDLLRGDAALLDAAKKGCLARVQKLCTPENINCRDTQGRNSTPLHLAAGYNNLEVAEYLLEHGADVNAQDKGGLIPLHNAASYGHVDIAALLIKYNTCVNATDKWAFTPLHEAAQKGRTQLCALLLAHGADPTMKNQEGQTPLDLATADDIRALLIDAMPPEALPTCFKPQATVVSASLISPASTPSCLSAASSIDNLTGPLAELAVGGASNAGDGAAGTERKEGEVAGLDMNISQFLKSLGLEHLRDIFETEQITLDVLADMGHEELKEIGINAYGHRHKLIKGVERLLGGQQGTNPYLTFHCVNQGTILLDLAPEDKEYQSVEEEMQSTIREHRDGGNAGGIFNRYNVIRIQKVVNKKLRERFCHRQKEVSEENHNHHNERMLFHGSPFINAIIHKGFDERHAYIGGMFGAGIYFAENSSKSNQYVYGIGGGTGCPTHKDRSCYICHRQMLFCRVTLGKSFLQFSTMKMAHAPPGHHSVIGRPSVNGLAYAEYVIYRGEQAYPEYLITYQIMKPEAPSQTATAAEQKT

HCT-116 [2] = assay: Induction of cell cycle arrest in human HCT-116 cells assessed as G0/G1 phase cells at 5 uM incubated for 3 days by propidium iodide staining based flow cytometry (reference value: 68.35 %); assay type: functional; settings: time 3 day
HCT-116 [3] = assay: Inhibition of Wnt/beta-Catenin signaling in human HCT-116 cells assessed as increase in axin2 levels at 10 uM by Western blot analysis; assay type: cell-based
HCT-116 [4] = assay: Induction of cell cycle arrest in human HCT-116 cells assessed as G2/M phase cells at 1 uM incubated for 3 days by propidium iodide staining based flow cytometry (reference value: 68.35 %); assay type: functional; settings: time 3 day
[5] = Toxicity in BALB/c nude mouse xenografted with human HCT116 cells at 25 to 100 mg/kg, ip administered once daily for 28 days; assay type: organism-based, HCT-116; settings: in vivo, 672 h, dose 25-100 mg/kg, time 28 day
HCT-116 [6] = assay: Antitumor activity against human HCT-116 cells xenografted in BALB/c nude mouse assessed as tumor growth inhibition at 100 mg/kg, ip administered once daily for 28 days; assay type: functional; settings: HCT-116, 672 h, time 28 day, read-out: TGI
HCT-116 [7] = assay: Induction of DNA damage in human HCT-116 cells assessed as increase in nuclear gammaH2AX foci incubated for 72 hrs by DAPI staining based immunofluorescence analysis; assay type: functional, cell-based; settings: dose 1.0 µM
[8] = target: Poly [ADP-ribose] polymerase 1 (Homo sapiens, UniProt P09874); settings: dose 10.0 nM, time 45.0 min
HCT-116 [9] = assay: Inhibition of homologous recombinant repair in human HCT-116 cells assessed as reduction in RAD51 foci formation at 1 uM incubated for 72 hrs by DAPI staining based immunofluorescence analysis; assay type: functional, cell-based
[10] = target: T2, Protein mono-ADP-ribosyltransferase PARP10 (Homo sapiens, UniProt Q53GL7); assay: Inhibition of PARP-10 (unknown origin)
T2 sequence (Q53GL7 whole entry): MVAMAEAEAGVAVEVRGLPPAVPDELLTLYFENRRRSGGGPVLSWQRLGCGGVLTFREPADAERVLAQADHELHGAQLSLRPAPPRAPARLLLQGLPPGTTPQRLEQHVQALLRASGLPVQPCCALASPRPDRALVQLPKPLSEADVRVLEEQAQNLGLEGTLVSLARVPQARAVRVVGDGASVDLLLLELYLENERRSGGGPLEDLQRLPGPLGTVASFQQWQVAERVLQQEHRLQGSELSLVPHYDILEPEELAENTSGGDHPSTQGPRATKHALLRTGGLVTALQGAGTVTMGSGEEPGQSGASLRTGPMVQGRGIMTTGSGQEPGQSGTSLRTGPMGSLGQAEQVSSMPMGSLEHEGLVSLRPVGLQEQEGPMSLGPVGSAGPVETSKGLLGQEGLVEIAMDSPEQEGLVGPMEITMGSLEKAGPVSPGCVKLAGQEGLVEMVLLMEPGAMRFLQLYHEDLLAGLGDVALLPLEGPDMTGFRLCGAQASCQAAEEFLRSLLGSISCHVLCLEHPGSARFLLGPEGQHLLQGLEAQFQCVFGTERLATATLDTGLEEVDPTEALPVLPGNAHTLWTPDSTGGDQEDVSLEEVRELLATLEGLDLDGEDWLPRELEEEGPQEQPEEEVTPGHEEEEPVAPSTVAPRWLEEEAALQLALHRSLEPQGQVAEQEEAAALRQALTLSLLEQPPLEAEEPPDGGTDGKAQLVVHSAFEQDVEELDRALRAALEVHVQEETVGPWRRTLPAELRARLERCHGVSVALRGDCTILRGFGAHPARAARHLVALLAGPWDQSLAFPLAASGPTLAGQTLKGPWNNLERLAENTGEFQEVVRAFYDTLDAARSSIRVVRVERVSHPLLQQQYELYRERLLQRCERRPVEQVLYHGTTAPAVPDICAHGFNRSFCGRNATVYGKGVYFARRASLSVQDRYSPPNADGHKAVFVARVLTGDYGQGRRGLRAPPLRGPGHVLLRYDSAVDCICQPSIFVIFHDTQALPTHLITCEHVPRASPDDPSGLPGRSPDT

Chain of Poly [ADP-ribose] polymerase 1 (P09874 whole entry): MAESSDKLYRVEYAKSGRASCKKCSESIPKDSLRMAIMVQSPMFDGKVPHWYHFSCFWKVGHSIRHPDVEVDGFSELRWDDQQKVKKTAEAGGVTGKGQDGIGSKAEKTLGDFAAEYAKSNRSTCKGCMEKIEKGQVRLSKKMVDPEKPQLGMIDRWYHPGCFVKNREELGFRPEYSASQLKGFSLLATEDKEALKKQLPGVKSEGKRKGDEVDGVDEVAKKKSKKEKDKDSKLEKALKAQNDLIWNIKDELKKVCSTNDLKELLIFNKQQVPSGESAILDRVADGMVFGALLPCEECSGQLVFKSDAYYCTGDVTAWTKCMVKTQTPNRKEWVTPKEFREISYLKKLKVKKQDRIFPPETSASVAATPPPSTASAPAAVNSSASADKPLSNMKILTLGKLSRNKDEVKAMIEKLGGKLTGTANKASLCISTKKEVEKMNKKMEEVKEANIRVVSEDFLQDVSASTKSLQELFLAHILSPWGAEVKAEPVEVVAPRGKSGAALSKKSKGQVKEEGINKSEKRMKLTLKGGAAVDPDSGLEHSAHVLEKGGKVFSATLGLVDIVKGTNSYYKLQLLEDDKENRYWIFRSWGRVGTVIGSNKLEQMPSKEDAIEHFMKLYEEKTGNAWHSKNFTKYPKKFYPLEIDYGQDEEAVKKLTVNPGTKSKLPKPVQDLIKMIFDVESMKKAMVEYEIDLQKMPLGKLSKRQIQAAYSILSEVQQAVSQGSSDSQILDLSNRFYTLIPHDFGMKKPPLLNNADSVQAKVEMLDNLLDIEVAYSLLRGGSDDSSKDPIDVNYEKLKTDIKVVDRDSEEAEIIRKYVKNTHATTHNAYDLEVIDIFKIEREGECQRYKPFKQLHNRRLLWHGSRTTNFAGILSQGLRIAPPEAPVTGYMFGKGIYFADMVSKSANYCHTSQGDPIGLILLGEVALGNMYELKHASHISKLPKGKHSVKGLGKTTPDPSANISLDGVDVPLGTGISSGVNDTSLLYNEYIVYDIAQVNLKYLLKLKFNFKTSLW

In the case of `COc1ccc(NC(=O)c2ccc(NC(=O)N3CCN(C(=O)c4cc(Cc5n[nH]c(=O)c6ccccc56)ccc4F)CC3)cc2)cc1`, the inhibition [1] is reported as 28%, the Activity (HCT-116 [2]) is reported as 41.21% and the inhibition (HCT-116 [3]) is reported as “Active”. The Activity (HCT-116 [4]) was 31.42%, the Activity [5] was “Non-Toxic” and the inhibition in vivo at 100 mg/kg (HCT-116 [6]) was 51.7%. The Activity (HCT-116 [7]) was “Active”, the inhibition [8] was 97% and the inhibition (HCT-116 [9]) was “Active”. For the same compound, the IC50 [10] was 140 nM.
